One test concerns MCF7-LTED cells. In words: MTT cell viability assay. Type of test: cell-based. The method, then: (§1) MCF7-LTED cells were established in phenol red-free Roswell Park Memorial Institute medium containing 10% dextran-coated charcoal-stripped fetal bovine serum. Cellular viability was evaluated using a standard methylthiazol tetrazolium (MTT; Sigma-Aldrich) assay. The results of these assays are expressed relative to vehicle treated controls and to the original time point.
MCF7 and MCF7-LTED cells were plated in 384-well microtiter plates and five compound dilutions (1 nM to 10 µM final concentration) from the LOPAC library (1,258 compounds, Sigma-Aldrich) were added to the cultures. Cell viability was assessed after 72 hours using MTT-based assays and the EnVision spectrofluorometer (Perkin-Elmer). The screen was performed in triplicate. The quality of the screen (Z'-factor > 0.5 for all screens) and the data was analyzed using the cell HTS2 module in the ScreenSaver database. The data was normalized between 0 and 1 using positive (1 µM phenylarsene oxide, Sigma-Aldrich) and negative (0.1% dimethyl sulfoxide, Merck) controls for cell viability. For hit selection, the difference between the normalize percentage inhibition (NPI) in MCF7 and MCF7-LTED cells was calculated by subtraction [ΔNPI = NPI(MCF7-LTED) - NPI(MCF7)] and the differentials were clustered with the MeV software package using the Cluster Affinity Search method with the Euclidean distance metric (threshold of 0.7).
Acquired resistance to aromatase inhibitors in postmenopausal women can be modeled in long-term estrogen-deprived (LTED) MCF7 cells. Using this model, a cell-based chemical compound screen was carried out to identify potential therapeutic strategies that could prevent and/or overcome resistance. More than 1,200 compounds were assessed for their differential effect on the viability (as defined by MTT-based assays) of MCF7-LTED cells relative to the parental MCF7 cells.
Having identified the comparative inhibitory effect of YC-1 on the viability of MCF7-LTED cells, we evaluated the effect of this compound on a collection of breast cancer cell lines. […]
(Tetrazolium dyes change colour on reduction, which living cells bring about.)

The test system of a further test is platelet aggregation. The settings on record: cited from earlier work.
In test [1] the test system is phenylephrine-induced contractions of rabbit aorta. The settings on record: cited from earlier work.
In the next test the test system is MCF7 cells. In words: MTT cell viability assay. Type of test: cell-based. The settings on record: Homo sapiens, MCF7 cell line. The method, then: as §1
[…] Cell viability was assessed after 72 hours using MTT-based assays and the EnVision spectrofluorometer (Perkin-Elmer). The screen was performed in triplicate. The quality of the screen (Z'-factor > 0.5 for all screens) and the data was analyzed using the cell HTS2 module in the ScreenSaver database. […] For hit selection, the difference between the normalize percentage inhibition (NPI) in MCF7 and MCF7-LTED cells was calculated by subtraction [ΔNPI = NPI(MCF7-LTED) - NPI(MCF7)] and the differentials were clustered with the MeV software package using the Cluster Affinity Search method with the Euclidean distance metric (threshold of 0.7).
Acquired resistance to aromatase inhibitors in postmenopausal women can be modeled in long-term estrogen-deprived (LTED) MCF7 cells. […] More than 1,200 compounds were assessed for their differential effect on the viability (as defined by MTT-based assays) of MCF7-LTED cells relative to the parental MCF7 cells. […]

A further test deals with AU565. The test can be described thus: MTT cell viability assay. Type of test: cell-based. The settings on record: Homo sapiens, AU565 cell line. The method, then:
as §1
(§2) Having identified the comparative inhibitory effect of YC-1 on the viability of MCF7-LTED cells, we evaluated the effect of this compound on a collection of breast cancer cell lines. […] For the remaining sensitive cell lines (as defined by an IC50 < 10 µM threshold), no associations with ERα and/or progesterone receptor (PR) and/or human epidermal growth factor receptor 2 (HER2) were observed (Table 1). Table 1. YC-1 IC50 (µM) values in breast cancer cell lines

In another test the test system is BT474. In words: MTT cell viability assay. Type of test: cell-based. The note with it: Homo sapiens, BT-474, BT474 cell line. The method, then:
as §1, §2

In another test the test system is HCC1937. In words: MTT cell viability assay. Type of test: cell-based. The note with it: Homo sapiens, HCC1937 cell line. The method, then:
as §1, §2

In another test the test system is MCF10A. In words: MTT cell viability assay. The settings on record: Homo sapiens, MCF-10A, MCF10A cell line. Type of test: cell-based. The method, then: as §1, §2
A further test concerns MCF7-HER2. The test can be described thus: MTT cell viability assay. Type of test: cell-based. The note with it: MCF7-HER2 cell line. The method, then: as §1, §2
The test system of another test is MDA-MB-231. The test can be described thus: MTT cell viability assay. It counts as cell-based. The note with it: Homo sapiens, MDA-MB-231 cell line. The method, then: as §1, §2
For another test, the system named is MDA-MB-453. The test can be described thus: MTT cell viability assay. Type of test: cell-based. The note with it: Homo sapiens, MDA-MB-453 cell line. The method, then: as §1, §2
A further test concerns MDA-MB-468. The test can be described thus: MTT cell viability assay. It counts as cell-based. The note with it: Homo sapiens, MDA-MB-468 cell line. The method, then:
as §1, §2

The test system of a further test is SKBR3. The test can be described thus: MTT cell viability assay. The note with it: Homo sapiens, SK-BR-3, SKBR3 cell line. Type of test: cell-based. The method, then: as §1, §2
In the next test the test system is T47D. The test can be described thus: MTT cell viability assay. Type of test: cell-based. The note with it: Homo sapiens, T47D cell line. The method, then: as §1, §2
The subject of a further test is ZR751. The test can be described thus: MTT cell viability assay. Type of test: cell-based. The note with it: Homo sapiens, ZR-75-1, ZR751 cell line. The method, then: as §1, §2
The next test deals with ERα. In words: Subcellular localization of ERα after YC-1 treatment. The note with it: MCF7-LTED and MCF7 cells; no substantial differences between the two. It counts as cell-based. An excerpt: (§3) To determine the YC-1 mechanism of action that may be selective in models of acquired resistance, the subcellular localization of ERα was first examined. Although ERα levels and localization were altered by YC-1 treatment, no substantial differences were observed between MCF7-LTED and MCF7 cells. Subsequently, whole-genome expression data was obtained and analyzed for the basal and YC-1-exposed conditions in both cell lines. Consistent with the results described above, expression of the ribosome pathway clearly distinguished MCF7-LTED and MCF7 cells in basal conditions. […] In contrast, exposure of MCF7-LTED cells to YC-1 led to alteration of the cell cycle pathway and a decrease in a central positive regulator of the cell cycle, E2F1.

The test system of test [2] is phospho-serine 235/236 ribosomal S6 protein. In words: Phospho-S6 after YC-1 exposure of MCF7 cells. It counts as cell-based. The note with it: MCF7 cells exposed to YC-1.
From the text: as §3

For a further test, the system named is E2F1. In words: E2F1 after YC-1 exposure of MCF7-LTED cells. Type of test: cell-based. The note with it: MCF7-LTED cells exposed to YC-1.
From the text: as §3

Broadly, the IC50 is the midpoint of a concentration-inhibition curve. For the compound `Nc1nc(-c2nn(Cc3ccccc3F)c3ncccc23)ncc1C1CC1` [BAY 41-2272], in the test on MCF7-LTED cells (MCF7-LTED versus MCF7 cells, validation, Fig. 1C), the “differences in cell viability” value is reported as “differences in cell viability, although of lesser magnitude”. The 50% inhibitory concentration (IC50) with platelet aggregation was 0.036 µM; in test [1] it was 0.3 µM.
As to `COc1cc2ncnc(Nc3ccc(F)c(Cl)c3)c2cc1OCCCN1CCOCC1` [Gefitinib, reference compound], the “differences in the growth rate of the two cellular models” value in the test with MCF7-LTED cells (MCF7-LTED versus MCF7 cells, Fig. 1D) is “No differences”.
For `OCc1ccc(-c2nn(Cc3ccccc3)c3ccccc23)o1` [YC-1, 3-(5'-hydroxymethyl-2'-furyl)-1-benzylindazole], the 50% inhibitory concentration (IC50) in the test on MCF7 cells worked out at 131 µM; with MCF7-LTED cells (MCF7-LTED cell line (long-term estrogen-deprived), cell viability), 4.9 µM; in the test with AU565, 1.3 µM; with BT474, 319 µM; with HCC1937, 253 µM; in the test on MCF10A, 99 µM. Further, the IC50 was found to be 187 µM in the test with MCF7-HER2; 4480 µM in the test on MDA-MB-231; 250 µM with MDA-MB-453; 49 µM in the test with MDA-MB-468; 1.6 µM with SKBR3; 8.2 µM in the test on T47D. In the test with ZR751, this compound gave an IC50 of 0.3 µM. Further, the “ERα levels and localization” value in the test with ERα is on record as “altered”. Further, in [2], the “phospho-serine 235/236 ribosomal S6 protein” value is “decrease”. In the test with E2F1, the E2F1 result was “decrease”.

Values taken from patent publication EP2821071A1, “Compounds for breast cancer treatment” (Institut d'Investigació Biomèdica de Bellvitge (IDIBELL), priority 2013, dated 2015).
